According to patent US7507792B2, “MDA-7 proteins and methods of use thereof” (The Trustees of Columbia University In The City of New York, priority 1993, dated 2009):
Starred links: 1 amine or outer side, 2 acyl side, 3 side chain; linkers in the order of their positions; H or OH if unused. Positions of bridges follow the written chain, without caps; N, C: chain ends. Non-standard residues stand in square brackets, D forms with d. Residues, ends and D or L forms follow the SMILES beside them. Chains are numbered I, II in the order given. Actinocin(9to1) = Cc1c2oc3c(C)ccc(C(=O)[*:1])c3nc-2c(C(=O)[*:2])c(N)c1=O; NMeV = CN[C@H](C(=O)O)C(C)C; Sar = CNCC(=O)O

Tests used:
Type in all cases: cell-based, human
mda-6 = mda-6 expression (Northern blotting); details: H0-1
Description: (§1) The mass excision of the library was performed using ExAssist helper phage as described above. The SOLR strain of Escherichia coli and cDNA phagemids were mixed at 37° C. for 15 min and plated onto LB plates containing ampicillin and IPTG/X-gal. White colonies were chosen at random, isolated and grown in LB medium. Plasmid minireps and restriction enzyme digestions were performed to confirm the presence of inserts. The inserts were isolated and used as robes for Northern blotting analysis (5,25). […] Radiolabeled probes were generated by random oligonucleotide priming (25). Prehybridization, hybridization, posthybridization washes, and autoradiography were performed as described (5,18,25).
Total cytoplasmic RNA was isolated and Northern blotting hybridization was performed as described (Reddy et al., 1991; Su et al., 1991; Jiang et al., 1992). Ten μg of RNA was denatured with glyoxal/DMSO, electrophoresed on 1.0% agarose gels, transferred to nylon membranes and hybridized to a ^32P-labeled p53 probe (Baker et al., 1990). The nylon membrane was stripped and hybridized to a ^32P-labeled mda-6 probe (Jiang and Fisher, 1993) and then after a second stripping the membrane was hybridized to a ^32P-labeled rat GAPDH probe (Fort et al., 1985), as described previously (Reddy et al., 1991; Su et al., 1991; Jiang et al., 1992). Following hybridization, the filters were washed and exposed for autoradiography (Reddy et al., 1991; Su et al., 1991; Jiang et al., 1992). mda-6 and GAPDH gene expression were also determined by reverse transcription-polymerase chain reaction (RT-PCR) as described (Adollahi et al., 1991; Lin et al., 1994; Jiang et al., 1994b). Total cytoplasmic RNA was treated with 0.5 units DNase (Boehringer-Mannheim Biochemicals)/μg RNA in 15% glycerol, 10 mM Tris, pH 7.5, 2.5 mM MgCl2, 0.1 mM EDTA, 80 mM KCl, 1 mM CaCl2 and 1 unit/ml RNasin (Promega) at 30° C. for 10 min. RNA was extracted with phenol-chloroform, precipitated with sodium acetate/ethanol and RNA pellets were resuspended in diethylpyrocarbonate-treated H2O. One μg of total RNA was reverse transcribed with 200 units of murine leukemia virus reverse transcriptase (Bethesda Research Laboratories) in 20 μl containing 1 mM deoxyribonucleotide triphosphates, 4 mM MgCl2, 10 mM Tris, pH 8.3, 50 mM KCl, 0.001% gelatin and 0.2 μg oligo-dT primer. Samples were adjusted to 100 μl with buffer containing 0.2 mM deoxyribonucleotide triphosphates, 2 mM MgCl2, 10 mM Tris, pH 8.3, 50 mM KCl and 0.001% gelatin. Fifty pmol of each primer, 1.5 units Taq DNA polymerase (Perkin-Elmer Cetus) were added and samples were covered with mineral oil, heated at 95° C. for 5 min and subjected to 25 cycles of PCR in a Perkin-Elmer Thermal Cycler using 1 min denaturation at 94° C., 2 min annealing at 55° C. and 3 min polymerization at 72° C. After extraction with chloroform, 20 μl of products were electrophoresed, blotted onto nylon filters and hybridized with an mda-6 or GAPDH specific probe. The mda-6 primers were 5′ to 3′ […] (SEQ ID NO:26) and […] (SEQ ID NO:27)(corresponding to nt 1527 to 1546) (GenBank accession number U09579); and the GAPDH primers were 5′ to 3′ […] (SEQ ID NO:28)and […] (SEQ ID NO:29)(corresponding to nt 1070 to 1053) (Tokunaga et al., 1987).

mda-4 = mda-4 expression (Northern blotting); details: H0-1; 24 hours; doses of FIG. 19; phenyl butyrate 24 hours, 4 days or 7 days
Description: as §1

mda-8 = mda-8 expression (Northern blotting); details: H0-1; 24 hours; doses of FIG. 19; phenyl butyrate 24 hours, 4 days or 7 days
Description: as §1

mda-7 = mda-7 expression (Northern blotting, RT-PCR); details: for mda-7 expression: H0-1, 24 hours, doses of FIG. 19, phenyl butyrate 24 hours, 4 days or 7 days
Description: as §1

mda-5 = mda-5 expression (Northern blotting); details: H0-1; 24 hours; doses of FIG. 19; phenyl butyrate 24 hours, 4 days or 7 days
Description: as §1

mda-9 = mda-9 expression (Northern blotting); details: H0-1; 24 hours; doses of FIG. 19; phenyl butyrate 24 hours, 4 days or 7 days
Description: as §1

[1] = 24 hours, doses of FIG. 19, phenyl butyrate 24 hours, 4 or 7 days

| Compound | mda-6 expression (mda-6; [1]) | mda-4 expression (mda-4) | mda-8 expression (mda-8) | mda-7 expression (mda-7) | mda-5 expression (mda-5) | mda-9 expression (mda-9) | mda-6 expression (mda-6; 2 h exposure to 25 μg/ml) | mda-7 expression (RT-PCR) (mda-7; LAN human neuroblastoma cells, 5 days) |
| --- | --- | --- | --- | --- | --- | --- | --- | --- |
| COc1cc([C@@H]2c3cc4c(cc3[C@@H](O[C@@H]3O[C@@H]5CO[C@@H](C)O[C@H]5[C@H](O)[C@H]3O)[C@H]3COC(=O)[C@H]23)OCO4)cc(OC)c1O [VP-16] | increased expression | No or only a small change in expression | No change in expression | No induction in mda-7 expression | No change in expression | Increased expression | – | – |
| Cc1c2oc3c(C)ccc(C(=O)N[C@@H]4C(=O)N[C@H](C(C)C)C(=O)N5CCC[C@H]5C(=O)N(C)CC(=O)N(C)[C@@H](C(C)C)C(=O)O[C@@H]4C)c3nc-2c(C(=O)N[C@@H]2C(=O)N[C@H](C(C)C)C(=O)N3CCC[C@H]3C(=O)N(C)CC(=O)N(C)[C@@H](C(C)C)C(=O)O[C@@H]2C)c(N)c1=O [actinomycin D] (I: T[dV]P[Sar][NMeV] / II: T[dV]P[Sar][NMeV]; ester I:1-I:C, II:1-II:C; linker I:N-II:N via Actinocin(9to1)) | increased expression | No or only a small change in expression | Increased expression | No induction in mda-7 expression | No change in expression | No change in mda-9 expression | – | – |
| COc1cccc2c1C(=O)c1c(O)c3c(c(O)c1C2=O)C[C@@](O)(C(=O)CO)C[C@@H]3O[C@H]1C[C@H](N)[C@H](O)[C@H](C)O1 [adriamycin, Adriamycin] | increased expression | No or only a small change in expression | Increased expression | increased mda-7 expression | No change in expression | – | – | – |
| N.N.[Cl][Pt][Cl] [cis-platinum] | Decreased expression | increased expression | Increased expression | No induction in mda-7 expression | No change in expression | No change in mda-9 expression | – | – |
| COS(C)(=O)=O [methyl methanesulfonate] | – | – | – | – | – | – | Elevated mda-6 expression | – |
| CCCC(=O)Oc1ccccc1 [phenyl butyrate] | Decreased expression | No or only a small change in expression | No change in expression | No induction in mda-7 expression | No change in expression | Increased expression | – | – |
| CC[C@]1(O)C[C@H]2CN(CCc3c([nH]c4ccccc34)[C@@](C(=O)OC)(c3cc4c(cc3OC)N(C=O)[C@H]3[C@@](O)(C(=O)OC)[C@H](OC(C)=O)[C@]5(CC)C=CCN6CC[C@]43[C@@H]65)C2)C1 [vincristine, Vincristine] | No change in mda-6 expression | No or only a small change in expression | No change in expression | increased mda-7 expression | No change in expression | No change in mda-9 expression | – | – |
| IFN-α | Decreased expression | increased expression | No change in expression | No induction in mda-7 expression | increased expression | Increased expression | – | – |
| TNF-α | Decreased expression | No or only a small change in expression | No change in expression | No induction in mda-7 expression | No change in expression | Increased expression | – | – |
| phenylacetate | – | – | – | – | – | – | – | induced |
